We go through six compounds from patent publication US11571426B2, “Compositions for preventing or treating lupus” (CHONG KUN DANG PHARMACEUTICAL CORP., priority 2017, dated 2023).

Series [1] deals with TNFα secretion in LPS-stimulated human monocyte cell lines (THP-1). The experiment in a line: Suppression of TNFα secretion in LPS-stimulated THP-1 (ELISA). Format: cell-based. Here is the method: To identify the efficacy of the inventive compounds on suppressing a TNFα secretion in immune responses, suppression of TNFα production, which was achieved by a treatment with compounds 374, 461, 500, 530 and 532 according to the present invention in LPS-stimulated human monocyte cell lines (THP-1), was quantified by means of an enzyme immuno-assay (ELISA).
Specifically, the THP-1 cell lines (ATCC) were cultured in an RPMI-1640 medium comprising 10% FBS. The cell lines were divided into a 24 well plate at a ratio of 1×10^5 cells per well, then treated with 100 ng/mL PMA (phorbol 12-myristate 13-acetate) for 24 hours, and then differentiated into macrophage. Then, the culture medium was replaced with a new one, then treated with a test drug for 24 hours, and then treated again with 10 ng/mL LPS (E. Coli, O55:B5) for four hours for stimulation. After that, supernatant was taken and used to measure the amount of TNFα secreted from the cells by means of a Human TNFα Instant ELISA kit (eBioscience, BMS223INST) according to a protocol provided by a manufacturer.
A general note: An ELISA detects its analyte on a solid surface through an enzyme-linked reagent.

Series [2] concerns NZB/W F1 female mice. The experiment in a line: T cell populations in spleen (FACS) in SLE disease mouse. Format: in vivo. The conditions noted are these: positive control 5 mg/kg/day; vs negative control.
Series [3] concerns NZB/W F1 female mice. The experiment in a line: Serum cytokine level (Milliplex MAP kit) in SLE disease mouse. Format: in vivo. The conditions noted are these: group P, 5 mg/kg/day i.p., n = 13. Here is the method:
(§1) 80 NZB/W F1 female mice (four weeks old) were purchased from Jackson Laboratory and maintained in an SPF breeding room with five mice per cage. Their weight and urine protein were measured at 24 weeks after birth (right before administration), and then all the animals except those having too much urine protein were divided into groups as shown in a table 2 below such that the urine protein and weight might be evenly distributed among the groups.
(§2) Then, the mice were administered as described in the table 2 once a day for about 19 weeks from 24 weeks after birth to 42 weeks after birth.
(§3) The fresh urine of mice was collected before and after administration every two weeks, while blood collection was performed before and after administration every four weeks. The serum was prepared by centrifugation of the collected blood and then kept at −70° C.
To analyze an effect of the inventive pharmaceutical composition on a change in a serum cytokine level in the SLE disease mouse, a level of GM-CSF, IFN-γ, IL-1α, IL-1β, IL-10, IL-12(p70), IL-15, IL-17a, IL-2, IL-4, IL-6, TNF-α, […], IL-22 and IL-23 in serum was measured by means of a Mouse cytokine Milliplex MAP kit (Merck Millipore), wherein the results thereof were shown in a table 3.
Data obtained from groups were compared using a Kruskal-Wallis (†p<0.05) *p<0.05 versus C group (Mann-Whitney U-test)

The test system of series [4] is NZB/W F1 female mice. The experiment in a line: Proteinuria and UP/C in SLE model mouse. Format: in vivo. The conditions noted are these: positive control 5 mg/kg/day; 42 weeks old. Here is the method:
as §1, §2, §3
A urine creatinine concentration was obtained by diluting the urine 100-fold, then measuring the concentration thereof by means of a serum chemistry analyzer (Dri-CHEM 3000 colorimetric analyzer, Fujifilm), and then calibrating the measured value using a dilution factor.

Series [5] has as its system NZB/W F1 female mice. The series is described as follows: Serum chemistry after long-term administration. Format: in vivo, mouse. The conditions noted are these: group P, 5 mg/kg/day i.p.; serum at autopsy. Here is the method:
as §1, §2
Data obtained from groups were compared using a Kruskal-Wallis (†p<0.05), *p<0.05 versus C group (Mann-Whitney U-test), ALT: alanine aminotransferase, AST: aspartate aminotransferase, ALP: alkaline phosphatase, TBIL: total bilirubin, TCHOL: total cholesterol, TG: triglyceride, TP: total protein, CPK: creatine phosphokinase)

Series [6] has as its system CTLA4 (cytotoxic T-lymphocyte-associated protein 4) in the regulatory T cells. The experiment in a line: CTLA4 expression in regulatory T cells (flow cytometry). Format: cell-based, mouse. The conditions noted are these: 1000 nM. Here is the method: To identify if the compounds according to the present invention regulate a function of regulatory T cells in immune responses, compounds 255, 280, 374, 416 and 476 were treated, and then an expression level of an immune checkpoint receptor CTLA4 (cytotoxic T-lymphocyte-associated protein 4) in the regulatory T cells was measured by means of flow cytometry.
Specifically, a six-week old C57BL6 male mice were supplied from Central Lab Animal Inc., then acclimated for one week, and then used in an experiment. A spleen was isolated from the mouse, and then treated with collagenase D (Roche, 11088866001), such that splenocytes were isolated therefrom. CD4+CD25− T cells were isolated by means of a CD4+CD25+ regulatory T cell isolation kit (Miltenyi Biotec, 130-091-041), and then CD4+CD25− T cells (at a ratio of 5×10^5 cells/well) were treated with an anti-CD3c/anti-CD28 mAb bead (T cell activation/expansion kit, Miltenyi Biotec, 130-093627) and a mouse recombinant TGF-β2 for six days, such that they were differentiated into iTreg. A test drug was simultaneously treated for six days, during which the cells were differentiated into iTreg. After that, the cells were incubated by means of anti-CD^4/anti-CD25 mAb (eBioscience, 25-0042-82, 17-0251-82) at 4° C. for 20 minutes, and then labeling was performed. […]
(In general: In flow cytometry, cells or beads pass a laser one at a time.)

[7] abbreviates: on increasing concentration from 100 nM to 300 nM.

Marks after values point to notes of the source that are not given here.

In the case of `O=C(NO)c1ccc(CN(C(=O)N2CCOCC2)c2cccc(C(F)(F)F)c2)c(F)c1` [Compound 532, N-(2-fluoro-4-(hydroxycarbamoyl)benzyl)-N-(3-(trifluoromethyl)phenyl)morpholine-4-carboxamide], the “level of TNFα secretion” value in series [1] (setting [7]) was “drastically decreased”.

Take `C[C@H]1C[C@@H]2[C@H]([C@@H](O)C[C@@]3(C)[C@H]2CC[C@]3(O)C(=O)CO)[C@@]2(C)C=CC(=O)C=C12` [Methylprednisolone, reference compound]: the “decrease of ratio of CD138+ cells” value in the series with NZB/W F1 female mice [2] was 16.3%. Moreover, in the series on NZB/W F1 female mice [3], the IFN-γ in serum amounted to 0.07 ± 0.07 pg/mL, the IL22 in serum is 17.68 ± 4.49 pg/mL, the IL-1α in serum amounted to 666.21 ± 146.22 pg/mL and the IL-1β in serum amounted to 0.65 ± 0.65 pg/mL. Further, in the series with NZB/W F1 female mice [3], the IL-2 in serum stood at 0.09 ± 0.09 pg/mL, the IL-4 in serum is 1.49 ± 0.06 pg/mL, the IL-6 in serum was 3.36 ± 0.92 pg/mL and the IL-23 in serum came to 22.31 ± 17.13 pg/mL. The compound further registered a TGF-β in serum in the series with NZB/W F1 female mice [3] of 66007.78 ± 5207.83 pg/mL. Moreover, the “incidence rate of severe proteinuria of 300 mg/dl or more” value with NZB/W F1 female mice [4] is reported as 20%. Further, in the series on NZB/W F1 female mice [5], the ALP was 207.45 ± 7.21 U/I, the ALT is 24.09 ± 2.00* U/I, the AST was 52.09 ± 4.25* U/I and the Albumin was 2.52 ± 0.07* g/dl. For the same compound, in the series on NZB/W F1 female mice [5], the Ca amounted to 9.35 ± 0.16 mg/dL, the Glucose amounted to 189.27 ± 12.23 mg/dL, the TBIL stood at 0.41 ± 0.09 mg/dL and the TCHOL is 162.09 ± 8.97 mg/dL. In the series on NZB/W F1 female mice [5], the TG was found to be 251.82 ± 29.19 mg/dL and the TP is 5.42 ± 0.11* g/dl.

As for `O=C(NO)c1ccc(CN(C(=O)N2CCOCC2)c2cccc(F)c2)cc1` [Compound 530, N-(3-fluorophenyl)-N-(4-(hydroxycarbamoyl)benzyl)morpholine-4-carboxamide], the “level of TNFα secretion” value in series [1] (setting [7]) is “drastically decreased”.

As to `O=C(NO)c1ccc(CN(C(=O)N2CCOCC2)c2cccc(Br)c2)cc1` [Compound 255, N-(3-bromophenyl)-N-(4-(hydroxycarbamoyl)benzyl)morpholine-4-carboxamide], in series [6], the cytotoxicity entry is recorded as “severe cytotoxicity”.

Turning to `CCN1CCN(C(=O)N(Cc2ccc(C(=O)NO)cc2)c2cccc(C(F)(F)F)c2)CC1` [Compound 461, 4-ethyl-N-(4-(hydroxycarbamoyl)benzyl)-N-(3-(trifluoromethyl)phenyl)piperazine-1-carboxamide], in series [1] (at both 100 nM and 300 nM), the “level of TNFα secretion” value is given as “remarkably decreased”.

Consider `O=C(NO)c1ccc(CN(C(=O)N2CCOCC2)c2cccc(CF)c2)cc1` [Compound 500, N-(3-(fluoromethyl)phenyl)-N-(4-(hydroxycarbamoyl)benzyl)morpholine-4-carboxamide], for which the “level of TNFα secretion” value in series [1] (at both 100 nM and 300 nM) is reported as “remarkably decreased”.
